Consider 16 compounds from patent US10172868B2, “Substituted quinazolines for inhibiting kinase activity” (NeuPharma, Inc., priority 2013, dated 2019).

Bounds are passed on as bounds.

The target of experiment [1] is EGFR (ErbB1) L858R (Homo sapiens (Human), UniProt P00533, L858R). Description: Z'-LYTE kinase inhibition assay, EGFR L858R. The experiment is classed as biochemical. Conditions: read-out: % inhibition against EGFR L858R (Compound at 1 μM). The method, then: Inhibitory activities of compounds against BTK, EGFR and EGFR mutants (EGFR L858R, EGFR T790M, EGFR L858R/T790M), FGFR1, FGFR2, JAK2, JAK3 and KDR were measured by Invitrogen using Z'-LYTE® Method as briefly described in the following. Test Compounds are screened in 1% DMSO (final) in the well. For 10 point titrations, 3-fold serial dilutions are conducted from the starting concentration. All ATP Solutions are diluted to a 4× working concentration in Kinase Buffer (50 mM HEPES pH 7.5, 0.01% BRIJ-35, 10 mM MgCl2, 1 mM EGTA). Peptide/Kinase Mixtures are diluted to a 2× working concentration in the appropriate Kinase Buffers as described below. (ii) Peptide/Kinase Mixtures for Measurement of EGFR (ErbB1) L858R: The 2×EGFR (ErbB1) L858R/[…] mixture is prepared in 50 mM HEPES pH 7.5, 0.01% BRIJ-35, 10 mM MgCl2, 4 mM MnCl2, 1 mM EGTA, 2 mM DTT. The final 10 μL Kinase Reaction consists of 0.2-1.68 ng EGFR (ErbB1) L858R and 2 μM […] in 50 mM HEPES pH 7.5. 0.01% BRIJ-35, 10 mM MgCl2. 2 mM MnCl2, 1 mM EGTA, 1 mM DTT. After the 1 hour Kinase Reaction incubation, 5 μL of a 1:64 dilution of Development Reagent B is added. Reaction starts by 30-second shaking of mixture consisting of 2.5 μL 4× test compound, […] 2× kinase reaction mixture and 2.5 μL 4×ATP Solution on Bar-coded Corning, low volume NBS, black 384-well plate (Corning Cat. #3676). Then the mixture is incubated for 60-minute at room temperature for the kinase reaction, followed by addition of 5 μL of a 1:1024 dilution of development reagent A and 30-second plate shake. The mixture is then incubated for another 60-minute at room temperature for development reaction. Finally fluorescence is read by plate reader.

Experiment [2] has as its target JAK2 (Homo sapiens (Human), UniProt O60674). Briefly: Z'-LYTE kinase inhibition assay, JAK2. The experiment is classed as biochemical. Conditions: compound at 0.041 μM; read-out: % inhibition against JAK2. The procedure: (§1) Inhibitory activities of compounds against BTK, EGFR and EGFR mutants (EGFR L858R, EGFR T790M, EGFR L858R/T790M), FGFR1, FGFR2, JAK2, JAK3 and KDR were measured by Invitrogen using Z'-LYTE® Method as briefly described in the following.
(§2) Test Compounds are screened in 1% DMSO (final) in the well. For 10 point titrations, 3-fold serial dilutions are conducted from the starting concentration. All ATP Solutions are diluted to a 4× working concentration in Kinase Buffer (50 mM HEPES pH 7.5, 0.01% BRIJ-35, 10 mM MgCl2, 1 mM EGTA). Peptide/Kinase Mixtures are diluted to a 2× working concentration in the appropriate Kinase Buffers as described below.
(v) Peptide/Kinase Mixtures for Measurement of JAK2:
The 2×JAK2/Tyr 06 mixture is prepared in 50 mM HEPES pH 7.5, 0.01% BRIJ-35, 10 mM MgCl2, 1 mM EGTA. The final 10 μL Kinase Reaction consists of 0.06-0.81 ng JAK2 and 2 μM Tyr 06 in 50 mM HEPES pH 7.5, 0.01% BRIJ-35, 10 mM MgCl2, 1 mM EGTA. After the 1 hour Kinase Reaction incubation, 5 μL of a 1:64 dilution of Development Reagent A is added.
(§3) Reaction starts by 30-second shaking of mixture consisting of 2.5 μL 4× test compound, […] 2× kinase reaction mixture and 2.5 μL 4×ATP Solution on Bar-coded Corning, low volume NBS, black 384-well plate (Corning Cat. #3676). Then the mixture is incubated for 60-minute at room temperature for the kinase reaction, followed by addition of 5 μL of a 1:1024 dilution of development reagent A and 30-second plate shake. The mixture is then incubated for another 60-minute at room temperature for development reaction. Finally fluorescence is read by plate reader.

In experiment [3] the target is FGFR1 (Homo sapiens (Human), UniProt P11362). Briefly: Z'-LYTE kinase inhibition assay, FGFR1. Conditions: for inhibition at 0.041 µM: compound at 0.041 μM, read-out: % inhibition against FGFR1; for IC50: read-out: IC50 against FGFR1. The experiment is classed as biochemical. The method, then: as §1, §2
(v) Peptide/Kinase Mixtures for Measurement of FGFR1:
The 2×FGFR1/Tyr 04 mixture is prepared in 50 mM HEPES pH 7.5, 0.01% BRIJ-35, 10 mM MgCl2, 4 mM MnCl2, 1 mM EGTA, 2 mM DTT. The final 10 μL Kinase Reaction consists of 0.41-3.5 ng FGFR1 and 2 μM Tyr 04 in 50 mM HEPES pH 7.5, 0.01% BRIJ-35, 10 mM MgCl2, 2 mM MnCl2, 1 mM EGTA, 1 mM DTT. After the 1 hour Kinase Reaction incubation, 5 μL of a 1:64 dilution of Development Reagent B is added.
as §3
To determine IC50 of a compound against EGFR, EGFR mutant and other kinases, a series of concentrations of the compound were tested for the inhibition. […] The scale utilized in Table 4 is as follows: +++ less than 100 nM, ++ 100-500 nM and + greater than 500 nM.

For experiment [4], the system named is A431 cells. Description: cells. Conditions: Homo sapiens, A-431, 72 h, read-out: IC50 in A431 cells.
Experiment [5] deals with H3255 cells. Briefly: Inhibition of cancer cell growth, MTT assay, H3255. The note with it: Homo sapiens, NCI-H3255, 72 h, read-out: IC50 in H3255 cells. A general note: Tetrazolium assays rely on reduction of a dye to a coloured formazan, in cell work by metabolically active cells.
Protocol: (§4) Inhibition of cell growth by compounds was measured using MTT assay (Mosmann, T., Journal of Immunological Methods, 1983, 65, 55-63). Tumor cell lines were purchased from ATCC (American Type Culture Collection, Manassas, Va.). All cell lines were maintained in RPMI 1640 (Hyclone) supplemented with 10% fetal bovine serum (FBS, Hyclone), glutamine (2 mM, Hyclone), and antibiotics (penicillin 100 U/mL and streptomycin 50 μg/mL) at 37° C. in a humidified atmosphere of 5% CO2 in air. Taxol (as a positive control. Sigma) and compounds were dissolved in DMSO (Sigma), and the final concentration of DMSO in the medium was 1%. Tumor cells were plated in 96-well plates at densities of about 4000 cells/well of a 96-well plate and allowed to adhere/grow for 24 h. They were then treated with various concentrations of drug for 72 h, 3-(4,5-Dimethylthiazol-2-yl)-2,5-diphenyltetrazolium bromide (MTT, Sigma) was used to determine the number of viable cells at the time of compound addition and the number of cells remaining after 72 h compound exposure. The number of cells remaining after 72 h was compared to the number of viable cells at the time of compound addition by measuring the absorbance at 570 nm, allowing for the calculation of growth inhibition.
(§5) All concentrations of compounds were tested in triplicate and controls were averaged over 4 wells. IC50 was calculated by plotting the concentration of compound vs the percentage of inhibition in treated wells using GraphPad Prism 5.
In experiment [6] the test system is H1299 cells. Description: Inhibition of cancer cell growth, MTT assay, H1299. The note with it: Homo sapiens, NCI-H1299, 72 h, read-out: IC50 in H1299 cells.
Protocol: as §4, §5

Sequence of JAK2 (O60674 whole entry): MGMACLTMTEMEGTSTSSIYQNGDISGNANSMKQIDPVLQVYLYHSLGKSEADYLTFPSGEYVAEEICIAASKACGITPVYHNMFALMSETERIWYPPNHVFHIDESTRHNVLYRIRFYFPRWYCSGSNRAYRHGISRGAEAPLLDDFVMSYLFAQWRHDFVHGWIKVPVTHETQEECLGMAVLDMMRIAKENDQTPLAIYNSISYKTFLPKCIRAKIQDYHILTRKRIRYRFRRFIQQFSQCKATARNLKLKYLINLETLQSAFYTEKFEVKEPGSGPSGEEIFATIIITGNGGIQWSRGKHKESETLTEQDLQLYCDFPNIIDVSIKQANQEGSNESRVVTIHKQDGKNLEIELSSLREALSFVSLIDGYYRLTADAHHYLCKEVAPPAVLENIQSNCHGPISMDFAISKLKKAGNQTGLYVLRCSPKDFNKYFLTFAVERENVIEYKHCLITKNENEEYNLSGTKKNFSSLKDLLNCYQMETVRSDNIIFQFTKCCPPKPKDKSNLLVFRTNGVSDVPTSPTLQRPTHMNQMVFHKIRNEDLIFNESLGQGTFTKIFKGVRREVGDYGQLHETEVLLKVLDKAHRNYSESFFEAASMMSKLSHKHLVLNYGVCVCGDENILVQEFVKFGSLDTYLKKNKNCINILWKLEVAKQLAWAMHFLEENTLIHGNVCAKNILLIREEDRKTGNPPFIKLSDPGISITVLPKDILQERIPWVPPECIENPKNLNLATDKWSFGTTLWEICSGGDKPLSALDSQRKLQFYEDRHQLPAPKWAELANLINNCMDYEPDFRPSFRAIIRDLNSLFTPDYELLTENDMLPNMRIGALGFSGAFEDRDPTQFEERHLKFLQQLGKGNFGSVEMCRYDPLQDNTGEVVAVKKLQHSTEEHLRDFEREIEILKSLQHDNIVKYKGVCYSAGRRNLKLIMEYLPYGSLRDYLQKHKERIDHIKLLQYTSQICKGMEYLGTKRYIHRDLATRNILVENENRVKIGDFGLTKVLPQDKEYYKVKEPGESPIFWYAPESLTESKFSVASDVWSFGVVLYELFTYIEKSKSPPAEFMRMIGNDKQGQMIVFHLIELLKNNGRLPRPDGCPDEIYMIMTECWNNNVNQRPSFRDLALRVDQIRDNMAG
Sequence of FGFR1 (P11362 22-822): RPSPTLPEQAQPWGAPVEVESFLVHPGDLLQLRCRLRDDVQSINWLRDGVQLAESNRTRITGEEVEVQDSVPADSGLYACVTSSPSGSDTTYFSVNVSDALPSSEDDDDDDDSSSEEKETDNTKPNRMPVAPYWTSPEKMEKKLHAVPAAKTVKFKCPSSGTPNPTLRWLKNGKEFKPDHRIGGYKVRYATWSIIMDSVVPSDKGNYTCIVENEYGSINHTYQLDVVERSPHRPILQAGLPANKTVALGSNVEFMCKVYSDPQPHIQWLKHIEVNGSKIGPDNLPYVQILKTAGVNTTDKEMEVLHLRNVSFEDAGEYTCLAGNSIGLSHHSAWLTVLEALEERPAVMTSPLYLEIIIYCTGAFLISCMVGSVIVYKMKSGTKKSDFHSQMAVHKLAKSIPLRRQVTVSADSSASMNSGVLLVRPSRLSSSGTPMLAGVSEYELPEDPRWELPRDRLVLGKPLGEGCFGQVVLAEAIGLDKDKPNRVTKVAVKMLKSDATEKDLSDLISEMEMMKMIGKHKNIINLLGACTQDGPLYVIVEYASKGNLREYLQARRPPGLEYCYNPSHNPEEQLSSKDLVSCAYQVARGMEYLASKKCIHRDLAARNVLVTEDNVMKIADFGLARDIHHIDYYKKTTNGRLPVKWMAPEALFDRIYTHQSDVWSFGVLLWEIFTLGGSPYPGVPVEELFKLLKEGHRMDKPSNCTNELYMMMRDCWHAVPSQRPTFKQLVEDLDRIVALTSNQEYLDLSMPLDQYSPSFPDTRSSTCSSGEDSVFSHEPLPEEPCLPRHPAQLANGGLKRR
Sequence of EGFR (ErbB1) L858R (P00533 25-1210 L858R): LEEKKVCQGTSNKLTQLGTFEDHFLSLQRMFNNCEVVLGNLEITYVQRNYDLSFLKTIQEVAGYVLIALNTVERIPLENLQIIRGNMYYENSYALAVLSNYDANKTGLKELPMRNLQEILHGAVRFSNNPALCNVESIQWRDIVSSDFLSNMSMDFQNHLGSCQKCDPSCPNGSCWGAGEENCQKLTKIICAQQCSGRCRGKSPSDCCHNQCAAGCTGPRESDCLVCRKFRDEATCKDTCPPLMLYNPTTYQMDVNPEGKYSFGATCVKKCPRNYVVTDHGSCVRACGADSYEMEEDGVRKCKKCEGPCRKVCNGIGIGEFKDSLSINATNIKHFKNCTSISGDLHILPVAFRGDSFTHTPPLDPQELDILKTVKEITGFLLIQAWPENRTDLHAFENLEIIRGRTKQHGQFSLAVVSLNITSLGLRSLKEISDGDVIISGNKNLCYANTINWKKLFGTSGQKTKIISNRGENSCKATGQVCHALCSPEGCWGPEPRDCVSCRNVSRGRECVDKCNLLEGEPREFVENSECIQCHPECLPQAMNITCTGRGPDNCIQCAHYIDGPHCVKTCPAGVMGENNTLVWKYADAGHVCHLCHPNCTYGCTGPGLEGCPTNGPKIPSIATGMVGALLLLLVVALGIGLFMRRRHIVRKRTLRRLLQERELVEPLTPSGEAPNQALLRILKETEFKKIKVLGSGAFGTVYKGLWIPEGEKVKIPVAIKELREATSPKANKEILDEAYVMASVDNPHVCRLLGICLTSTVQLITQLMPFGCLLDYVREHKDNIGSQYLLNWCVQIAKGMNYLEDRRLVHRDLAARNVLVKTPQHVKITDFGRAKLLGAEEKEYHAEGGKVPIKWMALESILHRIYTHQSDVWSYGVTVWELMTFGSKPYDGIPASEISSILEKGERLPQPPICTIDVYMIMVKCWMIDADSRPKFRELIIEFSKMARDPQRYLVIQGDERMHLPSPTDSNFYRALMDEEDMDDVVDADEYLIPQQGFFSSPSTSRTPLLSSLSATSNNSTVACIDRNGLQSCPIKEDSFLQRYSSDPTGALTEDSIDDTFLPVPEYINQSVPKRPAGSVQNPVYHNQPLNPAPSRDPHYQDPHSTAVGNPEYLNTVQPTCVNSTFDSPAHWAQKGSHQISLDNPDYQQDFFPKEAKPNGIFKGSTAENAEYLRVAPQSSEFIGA

For the compound `C=CC(=O)Nc1cccc(-c2cccc3cnc(Nc4ccc(N5CCOCC5)cc4)nc23)c1` [Example C001, N-(3-(2-((4-morpholinophenyl)amino)quinazolin-8-yl)phenyl)acrylamide], the inhibition at 1 µM in experiment [1] is more than 50%. Further, the inhibition at 0.041 µM in experiment [2] and in experiment [3] was more than 50% each time. Further, the half-inhibitory concentration (IC50) in experiment [4], in experiment [5] and in experiment [6] was more than 500 nM each time.

As for `C=CC(=O)Nc1cccc(-c2cccc3cnc(Nc4ccc(N5CCOCC5)cc4OC)nc23)c1` [Example C002, N-(3-(2-((2-methoxy-4-morpholinophenyl)amino)quinazolin-8-yl)phenyl)acrylamide], the inhibition at 1 µM in experiment [1] was less than 50%. Moreover, the IC50 in experiment [4] and in experiment [5] was more than 500 nM throughout.

Regarding `C=CC(=O)Nc1cccc(-c2cccc3cnc(Nc4ccc(N5CCN(C)CC5)cc4OC)nc23)c1` [Example C003, N-(3-(2-((2-methoxy-4-(4-methylpiperazin-1-yl)phenyl)amino)quinazolin-8-yl)phenyl)acrylamide], the inhibition at 1 µM in experiment [1] is more than 50%. Moreover, the IC50 in experiment [4], in experiment [5] and in experiment [6] was more than 500 nM throughout.

As for `c1ccc(-c2cccc3cnc(Nc4ccc(N5CCOCC5)cc4)nc23)cc1` [Example C004, N-(4-morpholinophenyl)-8-phenylquinazolin-2-amine], the inhibition at 1 µM in experiment [1] was less than 50%. In experiment [2], the inhibition at 0.041 µM was more than 50%.

As to `C=CC(=O)Nc1cccc(-c2nccc3c(N)nc(Nc4ccc(N5CCOCC5)cc4)nc23)c1` [Example C005, N-(3-(4-amino-2-((4-morpholinophenyl)amino)pyrido[3,4-d]pyrimidin-8-yl)phenyl)acrylamide], the inhibition at 1 µM in experiment [1] is more than 50%. In addition, the inhibition at 0.041 µM in experiment [2] was less than 50%.

As to `Fc1ccc(Cl)cc1-c1cccc2cnc(Nc3ccc(N4CCOCC4)cc3)nc12` [Example C007, 8-(5-chloro-2-fluorophenyl)-N-(4-morpholinophenyl)quinazolin-2-amine], the inhibition at 1 µM in experiment [1] was less than 50%.

In the case of `Clc1cccc(-c2cccc3cnc(Nc4ccc(N5CCOCC5)cc4)nc23)c1` [Example C008, 8-(3-chlorophenyl)-N-(4-morpholinophenyl)quinazolin-2-amine], in experiment [1], the inhibition at 1 µM is less than 50%. Further, the inhibition at 0.041 µM in experiment [2] is more than 50%; in experiment [3], less than 50%.

For the compound `Fc1cccc(-c2cccc3cnc(Nc4ccc(N5CCOCC5)cc4)nc23)c1` [Example C009, 8-(3-fluorophenyl)-N-(4-morpholinophenyl)quinazolin-2-amine], in experiment [1], the inhibition at 1 µM is less than 50%. The inhibition at 0.041 µM in experiment [2] is more than 50%.

With `Fc1ccccc1-c1cccc2cnc(Nc3ccc(N4CCOCC4)cc3)nc12` [Example C010, 8-(2-fluorophenyl)-N-(4-morpholinophenyl)quinazolin-2-amine], in experiment [1], the inhibition at 1 µM is less than 50%.

`Clc1ccccc1-c1cccc2cnc(Nc3ccc(N4CCOCC4)cc3)nc12` [Example C011, 8-(2-chlorophenyl)-N-(4-morpholinophenyl)quinazolin-2-amine]: the inhibition at 1 µM in experiment [1] was less than 50%. Moreover, the half-maximal inhibitory concentration (IC50) in experiment [4] was more than 500 nM.

For the compound `C=CC(=O)Nc1cccc(-c2nccc3cnc(Nc4ccc(N5CCOCC5)cc4)nc23)c1` [Example C012, N-(3-(2-((4-morpholinophenyl)amino)pyrido[3,4-d]pyrimidin-8-yl)phenyl)acrylamide], the inhibition at 1 µM in experiment [1] is less than 50%. Also, the inhibition at 0.041 µM in experiment [2] is less than 50%. In experiment [4], the IC50 was more than 500 nM.

For the compound `C=CC(=O)Nc1cccc(-c2cccc3cnc(Nc4ccc(N5CCN(C)CC5)cc4)nc23)c1` [Example C021, N-(3-(2-((4-(4-methylpiperazin-1-yl)phenyl)amino)quinazolin-8-yl)phenyl)acrylamide], the inhibition at 0.041 µM in experiment [2] and in experiment [3] was more than 50% in each case. For the same compound, the IC50 in experiment [3] is less than 100 nM; in experiment [4], 100 to 500 nM; in experiment [5] it was 100 to 500 nM; in experiment [6], 100 to 500 nM.

`C=CC(=O)Nc1cccc(-c2cccc3cnc(Nc4ccc(N5CCN(C)CC5)nc4)nc23)c1` [Example C041, N-(3-(2-((6-(4-methylpiperazin-1-yl)pyridin-3-yl)amino)quinazolin-8-yl)phenyl)acrylamide]: the IC50 is less than 100 nM in experiment [3], more than 500 nM in experiment [4], more than 500 nM in experiment [5] and more than 500 nM in experiment [6].

As to `C=CC(=O)Nc1cccc(-c2cccc3cnc(Nc4ccc(N5CCN(C)CC5)cc4F)nc23)c1` [Example C044, N-(3-(2-((2-fluoro-4-(4-methylpiperazin-1-yl)phenyl)amino)quinazolin-8-yl)phenyl)acrylamide], the inhibition at 0.041 µM in experiment [3] was less than 50%. Also, the IC50 in experiment [4], in experiment [5] and in experiment [6] was more than 500 nM throughout.

As to `C=CC(=O)Nc1cccc(-c2cccc3cnc(Nc4ccc(N5CCN(CCF)CC5)cc4)nc23)c1` [Example C053, N-(3-(2-((4-(4-(2-fluoroethyl)piperazin-1-yl)phenyl)amino)quinazolin-8-yl)phenyl)acrylamide], the inhibition at 0.041 µM in experiment [2] and in experiment [3] was more than 50% in each case. The half-maximal inhibitory concentration (IC50) in experiment [4] lay in the range of 100 to 500 nM.

For `C=CC(=O)Nc1cccc(-c2cccc3cnc(Nc4ccc(N5CCN(CCO)CC5)cc4)nc23)c1` [Example C059, N-(3-(2-((4-(4-(2-hydroxyethyl)piperazin-1-yl)phenyl)amino)quinazolin-8-yl)phenyl)acrylamide], the inhibition at 0.041 µM in experiment [3] is more than 50%. In addition, the IC50 in experiment [3] is less than 100 nM; in experiment [4], 100 to 500 nM; in experiment [5], 100 to 500 nM; in experiment [6], more than 500 nM.

For orientation: inhibition means the relative decrease from the control value, in per cent. The IC50 is the midpoint of a concentration-inhibition curve.
